Measured values taken from PubChem BioAssay AID1919005 (Molecular Pharmacology Branch, DTP, NCI, 2023).
Where “and” joins values, the source holds several entries; their conditions need not be identical. Equal values may be shown once.

System: 855422-203-R-J1-PDC complex spheroid growth
Experiment: Anticancer human tumor 855422-203-R-J1-PDC patient-derived bladder carcinoma cell line growth inhibition [AhR]
Details: for viability, T/C: stronger effect = lower value
In short: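 Complex tumor spheroids co-cultured with HUVEC and human MSC stroma; AhR antagonists tested in combination with standard-of-care and investigational agents. Top concentration at or near clinical Cmax (else 10 microM), half-log dilutions; growth expressed as percent test/control.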

[1] = curve of first compound, second compound 0.1 µM
[2] = curve of first compound, second compound 0.316 µM
[3] = curve of first compound, second compound 1 µM
[4] = curve of first compound, second compound 3.16 µM
[5] = curve of first compound, second compound 10 µM
[6] = second compound 0.1 µM, first compound 0.0316 µM
[7] = second compound 0.1 µM, first compound 0.1 µM
[8] = second compound 0.1 µM, first compound 0.316 µM
[9] = second compound 0.1 µM, first compound 1 µM
[10] = second compound 0.316 µM, first compound 0.0316 µM
[11] = second compound 0.316 µM, first compound 0.1 µM
[12] = second compound 0.316 µM, first compound 0.316 µM
[13] = second compound 0.316 µM, first compound 1 µM
[14] = second compound 1 µM, first compound 0.0316 µM
[15] = second compound 1 µM, first compound 0.1 µM
[16] = second compound 1 µM, first compound 0.316 µM
[17] = second compound 1 µM, first compound 1 µM
[18] = second compound 3.16 µM, first compound 0.0316 µM
[19] = second compound 3.16 µM, first compound 0.1 µM
[20] = second compound 3.16 µM, first compound 0.316 µM
[21] = second compound 3.16 µM, first compound 1 µM
[22] = second compound 10 µM, first compound 0.0316 µM
[23] = second compound 10 µM, first compound 0.1 µM
[24] = second compound 10 µM, first compound 0.316 µM
[25] = second compound 10 µM, first compound 1 µM
[26] = second compound 0.1 µM, first compound 3.16 µM
[27] = second compound 0.1 µM, first compound 10 µM
[28] = second compound 0.316 µM, first compound 3.16 µM
[29] = second compound 0.316 µM, first compound 10 µM
[30] = second compound 1 µM, first compound 3.16 µM
[31] = second compound 1 µM, first compound 10 µM
[32] = second compound 3.16 µM, first compound 3.16 µM
[33] = second compound 3.16 µM, first compound 10 µM
[34] = second compound 10 µM, first compound 3.16 µM
[35] = second compound 10 µM, first compound 10 µM
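Note: spheroids exposed to agents for seven days before readout.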
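Throughout, for viability, T/C: percent of DMSO vehicle control luminescence viability.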

Compound: Nc1ncn(C2CC(O)C(CO)O2)c(=O)n1 (centres undefined) + Cc1cncc(-c2nc(NCCc3c[nH]c4ccccc34)c3ncn(C(C)C)c3n2)c1
- IC50 [1]: > 1 µM
- IC50 [2]: > 1 µM
- IC50 [3]: > 1 µM
- IC50 [4]: > 1 µM
- IC50 [5]: < 0.00316 µM
- viability, T/C (second compound 0.1 µM, first compound 0.00316 µM): 99.1%
- viability, T/C (second compound 0.1 µM, first compound 0.01 µM): 94.1%
- viability, T/C [6]: 88.8%
- viability, T/C [7]: 86.2%
- viability, T/C [8]: 82%
- viability, T/C [9]: 77.5%
- viability, T/C (second compound 0.316 µM, first compound 0.00316 µM): 86.8%
- viability, T/C (second compound 0.316 µM, first compound 0.01 µM): 88.5%
- viability, T/C [10]: 81.9%
- viability, T/C [11]: 79.8%
- viability, T/C [12]: 82.5%
- viability, T/C [13]: 75%
- viability, T/C (second compound 1 µM, first compound 0.00316 µM): 91.9%
- viability, T/C (second compound 1 µM, first compound 0.01 µM): 90%
- viability, T/C [14]: 85.5%
- viability, T/C [15]: 86.4%
- viability, T/C [16]: 82.4%
- viability, T/C [17]: 74.6%
- viability, T/C (second compound 3.16 µM, first compound 0.00316 µM): 79.9%
- viability, T/C (second compound 3.16 µM, first compound 0.01 µM): 86.5%
- viability, T/C [18]: 79.3%
- viability, T/C [19]: 71.4%
- viability, T/C [20]: 82%
- viability, T/C [21]: 69%
- viability, T/C (second compound 10 µM, first compound 0.00316 µM): 10.8%
- viability, T/C (second compound 10 µM, first compound 0.01 µM): 6.45%
- viability, T/C [22]: 2.54%
- viability, T/C [23]: 7.37%
- viability, T/C [24]: 9.7%
- viability, T/C [25]: 7.88%

Compound: O=C(C=Cn1cnc(-c2cc(C(F)(F)F)cc(C(F)(F)F)c2)n1)NNc1cnccn1
- viability, T/C (compound 0.00949 µM): 110% and 118% and 112%
- viability, T/C (compound 0.03 µM): 105% and 125% and 130%
- viability, T/C (compound 0.0949 µM): 164% and 169% and 162%
- viability, T/C (compound 0.3 µM): 41.3% and 95.5% and 51.4%
- viability, T/C (compound 0.949 µM): 29.9% and 55.1% and 35%
- viability, T/C (compound 3 µM): 20.7% and 42.1% and 27.6%
- IC50 (curve of compound): 0.267 µM and 0.917 µM and 0.327 µM

Compound: Nc1ccccc1NC(=O)c1ccc(CNC(=O)OCc2cccnc2)cc1 + Cc1ccccc1N=Nc1ccc(NC(=O)c2ccnn2C)c(C)c1
- IC50 [1]: 6.31 µM
- IC50 [2]: 6.25 µM
- IC50 [3]: 6.86 µM
- IC50 [4]: 6.01 µM
- IC50 [5]: 4.29 µM
- viability, T/C [6]: 101%
- viability, T/C [7]: 106%
- viability, T/C [8]: 100%
- viability, T/C [9]: 107%
- viability, T/C [26]: 78.4%
- viability, T/C [27]: 31.1%
- viability, T/C [10]: 103%
- viability, T/C [11]: 101%
- viability, T/C [12]: 104%
- viability, T/C [13]: 107%
- viability, T/C [28]: 84%
- viability, T/C [29]: 26.5%
- viability, T/C [14]: 106%
- viability, T/C [15]: 105%
- viability, T/C [16]: 109%
- viability, T/C [17]: 111%
- viability, T/C [30]: 91.2%
- viability, T/C [31]: 29.8%
- viability, T/C [18]: 97.4%
- viability, T/C [19]: 92.7%
- viability, T/C [20]: 92.1%
- viability, T/C [21]: 98%
- viability, T/C [32]: 86.2%
- viability, T/C [33]: 21.1%
- viability, T/C [22]: 85.3%
- viability, T/C [23]: 84.3%
- viability, T/C [24]: 87.4%
- viability, T/C [25]: 86.3%
- viability, T/C [34]: 61.6%
- viability, T/C [35]: 18.2%

Compound: Nc1ncn(C2CC(O)C(CO)S2)c(=O)n1 (centres undefined) + CC(CO)NC(=O)c1cc(-c2ccc(Cl)cc2)nn(-c2cnn(C)c2)c1=O
- IC50 [1]: > 0.3 µM
- IC50 [2]: > 0.3 µM
- IC50 [3]: > 0.3 µM
- IC50 [4]: > 0.3 µM
- IC50 [5]: > 0.3 µM
- viability, T/C (second compound 0.1 µM, first compound 0.000949 µM): 91.9%
- viability, T/C (second compound 0.1 µM, first compound 0.003 µM): 90.2%
- viability, T/C (second compound 0.1 µM, first compound 0.00949 µM): 88.3%
- viability, T/C (second compound 0.1 µM, first compound 0.03 µM): 93.4%
- viability, T/C (second compound 0.1 µM, first compound 0.0949 µM): 96.7%
- viability, T/C (second compound 0.1 µM, first compound 0.3 µM): 87.4%
- viability, T/C (second compound 0.316 µM, first compound 0.000949 µM): 97.3%
- viability, T/C (second compound 0.316 µM, first compound 0.003 µM): 93.3%
- viability, T/C (second compound 0.316 µM, first compound 0.00949 µM): 99.4%
- viability, T/C (second compound 0.316 µM, first compound 0.03 µM): 95.2%
- viability, T/C (second compound 0.316 µM, first compound 0.0949 µM): 87.6%
- viability, T/C (second compound 0.316 µM, first compound 0.3 µM): 82.2%
- viability, T/C (second compound 1 µM, first compound 0.000949 µM): 99.9%
- viability, T/C (second compound 1 µM, first compound 0.003 µM): 90.9%
- viability, T/C (second compound 1 µM, first compound 0.00949 µM): 101%
- viability, T/C (second compound 1 µM, first compound 0.03 µM): 92.1%
- viability, T/C (second compound 1 µM, first compound 0.0949 µM): 101%
- viability, T/C (second compound 1 µM, first compound 0.3 µM): 86.7%
- viability, T/C (second compound 3.16 µM, first compound 0.000949 µM): 91.8%
- viability, T/C (second compound 3.16 µM, first compound 0.003 µM): 94.5%
- viability, T/C (second compound 3.16 µM, first compound 0.00949 µM): 85.3%
- viability, T/C (second compound 3.16 µM, first compound 0.03 µM): 101%
- viability, T/C (second compound 3.16 µM, first compound 0.0949 µM): 90.9%
- viability, T/C (second compound 3.16 µM, first compound 0.3 µM): 80.4%
- viability, T/C (second compound 10 µM, first compound 0.000949 µM): 92.5%
- viability, T/C (second compound 10 µM, first compound 0.003 µM): 98%
- viability, T/C (second compound 10 µM, first compound 0.00949 µM): 87.3%
- viability, T/C (second compound 10 µM, first compound 0.03 µM): 93.5%
- viability, T/C (second compound 10 µM, first compound 0.0949 µM): 89.8%
- viability, T/C (second compound 10 µM, first compound 0.3 µM): 80.3%

Compound: COc1cccc2c1C(=O)c1c(O)c3c(c(O)c1C2=O)CC(O)(C(=O)CO)CC3OC1CC(N)C(O)C(C)O1 (centres undefined) + CC(CO)NC(=O)c1cc(-c2ccc(Cl)cc2)nn(-c2cnn(C)c2)c1=O
- IC50 [1]: < 0.0316 µM
- IC50 [2]: < 0.0316 µM
- IC50 [3]: < 0.0316 µM
- IC50 [4]: < 0.0316 µM
- IC50 [5]: < 0.0316 µM
- viability, T/C [6]: 34.3%
- viability, T/C [7]: 21.9%
- viability, T/C [8]: 4.3%
- viability, T/C [9]: 1.57%
- viability, T/C [26]: 1.7%
- viability, T/C [27]: 2.88%
- viability, T/C [10]: 31.6%
- viability, T/C [11]: 21.3%
- viability, T/C [12]: 3.51%
- viability, T/C [13]: 1.36%
- viability, T/C [28]: 1.02%
- viability, T/C [29]: 2.82%
- viability, T/C [14]: 37.7%
- viability, T/C [15]: 21.3%
- viability, T/C [16]: 3.4%
- viability, T/C [17]: 1.68%
- viability, T/C [30]: 0.81%
- viability, T/C [31]: 3.37%
- viability, T/C [18]: 32%
- viability, T/C [19]: 17.5%
- viability, T/C [20]: 2.92%
- viability, T/C [21]: 1.21%
- viability, T/C [32]: 0.84%
- viability, T/C [33]: 4.27%
- viability, T/C [22]: 32.9%
- viability, T/C [23]: 17.8%
- viability, T/C [24]: 2.64%
- viability, T/C [25]: 0.53%
- viability, T/C [34]: 0.94%
- viability, T/C [35]: 5.77%

Compound: Nc1ccccc1NC(=O)c1ccc(CNC(=O)OCc2cccnc2)cc1
- viability, T/C (compound 0.0316 µM): 86.3% and 105% and 90.3%
- viability, T/C (compound 0.1 µM): 87.8% and 108% and 86.7%
- viability, T/C (compound 0.316 µM): 82.7% and 108% and 84.8%
- viability, T/C (compound 1 µM): 82.7% and 109% and 97.4%
- viability, T/C (compound 3.16 µM): 46.1% and 85.7% and 68.4%
- viability, T/C (compound 10 µM): 5.42% and 27.3% and 14.9%
- IC50 (curve of compound): 2.8 µM and 6.39 µM and 4.69 µM

Compound: COc1ccc([C@@H](O)c2cc(-c3ncnc4cc(N5CCOCC5)ccc34)c(F)cc2Cl)nn1 + Cc1ccccc1N=Nc1ccc(NC(=O)c2ccnn2C)c(C)c1
- IC50 [1]: > 10 µM
- IC50 [2]: > 10 µM
- IC50 [3]: > 10 µM
- IC50 [4]: > 10 µM
- IC50 [5]: 6.18 µM
- viability, T/C [6]: 99.2%
- viability, T/C [7]: 108%
- viability, T/C [8]: 98.3%
- viability, T/C [9]: 96.5%
- viability, T/C [26]: 87.3%
- viability, T/C [27]: 71.3%
- viability, T/C [10]: 107%
- viability, T/C [11]: 111%
- viability, T/C [12]: 99.8%
- viability, T/C [13]: 102%
- viability, T/C [28]: 90.1%
- viability, T/C [29]: 70.3%
- viability, T/C [14]: 107%
- viability, T/C [15]: 102%
- viability, T/C [16]: 106%
- viability, T/C [17]: 96.9%
- viability, T/C [30]: 87.8%
- viability, T/C [31]: 63.1%
- viability, T/C [18]: 95.9%
- viability, T/C [19]: 100%
- viability, T/C [20]: 95.7%
- viability, T/C [21]: 98.6%
- viability, T/C [32]: 77.1%
- viability, T/C [33]: 54.8%
- viability, T/C [22]: 87.8%
- viability, T/C [23]: 91.6%
- viability, T/C [24]: 86.1%
- viability, T/C [25]: 86%
- viability, T/C [34]: 62%
- viability, T/C [35]: 41.4%
